Experimental data published in patent US6525001B1, “Substituted pyrimidine and pyridine herbicides” (Mid-American Commercialization Corporation, priority 1997, dated 2003).

How the values were obtained:
Assay type in all cases: in vivo
Parameters in all cases: key: 0 is no effect; 10 is complete control
[1] = system: crabgrass (Digitaria sanguinalis); assay: Test B pre-/postemergence; conditions: for Crabgrass plant response rating: Preemergence
Description: (§1) Seeds of bedstraw (Galium aparine), blackgrass (Alopecurus myosuroides), broadleaf signalgrass (Brachiaria decumbens), cocklebur (Xanthium strumarium), corn (Zea mays), crabgrass (Digitaria sanguinalis), giant foxtail (Setaria faberii), lambsquarters (Chenopodium album), momingglory (Ipomoea hederacea), pigweed (Amaranthus retroflexus), rape (Brassica napus), soybean (Glycine max), sugar beet (Beta vulgaris), velvetleaf (Abutilon theophrasti), wheat (Triticum aestivum), wild oat (Avena fatua) and purple nutsedge (Cyperus rotundus) tubers were planted and treated preemergence with test chemicals formulated in a non-phytotoxic solvent mixture which included a surfactant.
(§2) At the same time, these crop and weed species were also treated with postemergence applications of test chemicals formulated in the same manner. Plants ranged in height from 2 to 18 cm (1- to 4-leaf stage) for postemergence treatments. Plant species in the flood test consisted of rice (Oryza sativa), smallflower flatsedge (Cyperus difformis), duck salad (Heteranthera limosa) and bamyardgrass (Echinochloa crus-galli) grown to the 2-leaf stage for testing. Treated plants and controls were maintained in a greenhouse for twelve to sixteen days, after which all species were compared to controls and visually evaluated. Plant response ratings, summarized in Table B, are based on a scale of 0 to 10 where 0 is no effect and 10 is complete control. A dash (−) response means no test result.

[2] = system: cocklebur (Xanthium strumarium); assay: Test B pre-/postemergence; conditions: for Cocklebur plant response rating: Preemergence
Description: as §1, §2

[3] = system: broadleaf signalgrass (Brachiaria decumbens); assay: Test B pre-/postemergence; conditions: for B. signalgrass plant response rating: Preemergence
Description: as §1, §2

[4] = system: giant foxtail (Setaria faberii); assay: Test B pre-/postemergence
Description: as §1, §2

[5] = system: blackgrass (Alopecurus myosuroides); assay: Test B pre-/postemergence; conditions: for Blackgrass plant response rating: Preemergence
Description: as §1, §2

[6] = system: purple nutsedge (Cyperus rotundus); assay: Test B pre-/postemergence
Description: as §1, §2

[7] = system: wheat (Triticum aestivum); assay: Test B pre-/postemergence
Description: as §1, §2

wild oat (Avena fatua) = assay: Test B pre-/postemergence
Description: as §1, §2

[8] = system: sugar beet (Beta vulgaris); assay: Test B pre-/postemergence
Description: as §1, §2

soybean (Glycine max) = assay: Test B pre-/postemergence
Description: as §1, §2

[9] = system: pigweed (Amaranthus retroflexus); assay: Test B pre-/postemergence
Description: as §1, §2

rape (Brassica napus) = assay: Test B pre-/postemergence
Description: as §1, §2

[10] = system: velvetleaf (Abutilon theophrasti); assay: Test B pre-/postemergence
Description: as §1, §2

[11] = system: bedstraw (Galium aparine); assay: Test B pre-/postemergence; conditions: for Bedstraw plant response rating: Preemergence
Description: as §1, §2

[12] = system: momingglory (Ipomoea hederacea); assay: Test B pre-/postemergence
Description: as §1, §2

corn (Zea mays) = assay: Test B pre-/postemergence; conditions: for Corn plant response rating: Preemergence
Description: as §1, §2

rice (Oryza sativa) = assay: Test B flood test
Summary of the method: (§3)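 Read-out is a visual response score from 0 (no effect) to 10 (complete control), assigned by comparison with untreated controls. Treatment was applied at the 2-leaf stage, and plants stayed in the greenhouse for twelve to sixteen days before scoring.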

[13] = system: smallflower flatsedge (Cyperus difformis); assay: Test B flood test
Summary of the method: as §3

[14] = system: bamyardgrass (Echinochloa crus-galli); assay: Test B flood test
Summary of the method: as §3

[15] = system: duck salad (Heteranthera limosa); assay: Test B flood test
Summary of the method: as §3

[16] = Rate 250 g/ha, Postemergence (so in the source)
[17] = Rate 62 g/ha, Postemergence (flood test)
[18] = Rate 125 g/ha, Postemergence section (flood test species)
[19] = Rate 250 g/ha, Postemergence (flood test species)
[20] = Rate 125 g/ha, Postemergence, flood test

`Cc1cnc(-c2ccccc2F)nc1Cc1cccc(C#N)c1` [Compound 37] was tested, and the “Plant response rating, Crabgrass” value ([1]; Rate 62 g/ha, Postemergence) was 0, the “Crabgrass plant response rating” value ([1]; Rate 62 g/ha) was 0 and the “Plant response rating, Crabgrass” value ([1]; Rate 125 g/ha, Postemergence) was 0. The “Crabgrass plant response rating” value ([1]; Rate 125 g/ha) was 0, the “Plant response rating, Crabgrass” value ([1]; Rate 250 g/ha, Postemergence) was 1 and the “Plant response rating, Crabgrass” value [1, 16] was 0. The “Plant response rating, Cocklebur” value ([2]; Rate 62 g/ha, Postemergence) was 1, the “Cocklebur plant response rating” value ([2]; Rate 62 g/ha) was 0 and the “Plant response rating, Cocklebur” value ([2]; Rate 125 g/ha, Postemergence) was 2. For the same compound, the “Cocklebur plant response rating” value ([2]; Rate 125 g/ha) was 0, the “Plant response rating, Cocklebur” value ([2]; Rate 250 g/ha, Postemergence) was 3 and the “Plant response rating, Cocklebur” value [2, 16] was 0. For the same compound, the “Plant response rating, B. signalgrass” value ([3]; Rate 62 g/ha, Postemergence) was 0, the “B. signalgrass plant response rating” value ([3]; Rate 62 g/ha) was 0 and the “Plant response rating, B. signalgrass” value ([3]; Rate 125 g/ha, Postemergence) was 0. The “B. signalgrass plant response rating” value ([3]; Rate 125 g/ha) was 0, the “Plant response rating, B. signalgrass” value ([3]; Rate 250 g/ha, Postemergence) was 0 and the “Plant response rating, B. signalgrass” value ([3]; Rate 250 g/ha, Postemergence as printed in head r139 (second section for compounds 26-50)) was 0. The “Plant response rating, Giant foxtail” value ([4]; Rate 62 g/ha, Postemergence) was 0, the “Giant foxtail plant response rating” value ([4]; Rate 62 g/ha, Preemergence) was 0 and the “Giant foxtail plant response rating” value ([4]; Rate 125 g/ha, Postemergence) was 0. The “Giant foxtail plant response rating” value ([4]; Rate 125 g/ha, Preemergence) was 0, the “Plant response rating, Giant foxtail” value ([4]; Rate 250 g/ha, Postemergence) was 1 and the “Plant response rating, Giant foxtail” value [4, 16] was 0. For the same compound, the “Plant response rating, Blackgrass” value ([5]; Rate 62 g/ha, Postemergence) was 0, the “Blackgrass plant response rating” value ([5]; Rate 62 g/ha) was 0 and the “Plant response rating, Blackgrass” value ([5]; Rate 125 g/ha, Postemergence) was 0. The “Blackgrass plant response rating” value ([5]; Rate 125 g/ha) was 0, the “Plant response rating, Blackgrass” value ([5]; Rate 250 g/ha, Postemergence) was 0 and the “Plant response rating, Blackgrass” value [5, 16] was 0. The “Plant response rating, Nutsedge” value ([6]; Rate 62 g/ha, Postemergence) was 0, the “Nutsedge plant response rating” value ([6]; Rate 62 g/ha, Preemergence) was 0 and the “Nutsedge plant response rating” value ([6]; Rate 125 g/ha, Postemergence) was 0. For the same compound, the “Nutsedge plant response rating” value ([6]; Rate 125 g/ha, Preemergence) was 0, the “Plant response rating, Nutsedge” value ([6]; Rate 250 g/ha, Postemergence) was 0 and the “Plant response rating, Nutsedge” value [6, 16] was 0. For the same compound, the “Wheat plant response rating” value ([7]; Rate 62 g/ha, Postemergence) was 0, the “Wheat plant response rating” value ([7]; Rate 62 g/ha, Preemergence) was 0 and the “Wheat plant response rating” value ([7]; Rate 125 g/ha, Postemergence) was 0. The “Plant response rating, Wheat” value ([7]; Rate 125 g/ha, Preemergence) was 0, the “Plant response rating, Wheat” value ([7]; Rate 250 g/ha, Postemergence) was 0 and the “Plant response rating, Wheat” value [7, 16] was 0. For the same compound, the “Wild oats plant response rating” value (wild oat (Avena fatua); Rate 62 g/ha, Postemergence) was 0, the “Wild oats plant response rating” value (wild oat (Avena fatua); Rate 62 g/ha, Preemergence) was 0 and the “Wild oats plant response rating” value (wild oat (Avena fatua); Rate 125 g/ha, Postemergence) was 0. The “Plant response rating, Wild oats” value (wild oat (Avena fatua); Rate 125 g/ha, Preemergence) was 0, the “Plant response rating, Wild oats” value (wild oat (Avena fatua); Rate 250 g/ha, Postemergence) was 0 and the “Plant response rating, Wild oats” value (wild oat (Avena fatua); [16]) was 0. For the same compound, the “Plant response rating, Sugarbeets” value ([8]; Rate 62 g/ha, Postemergence) was 1, the “Sugarbeets plant response rating” value ([8]; Rate 62 g/ha, Preemergence) was 0 and the “Sugarbeets plant response rating” value ([8]; Rate 125 g/ha, Postemergence) was 5. The “Plant response rating, Sugarbeets” value ([8]; Rate 125 g/ha, Preemergence) was 0, the “Plant response rating, Sugarbeets” value ([8]; Rate 250 g/ha, Postemergence) was 5 and the “Plant response rating, Sugarbeets” value [8, 16] was 0. The “Plant response rating, Soybean” value (soybean (Glycine max); Rate 62 g/ha, Postemergence) was 0, the “Soybean plant response rating” value (soybean (Glycine max); Rate 62 g/ha, Preemergence) was 0 and the “Soybean plant response rating” value (soybean (Glycine max); Rate 125 g/ha, Postemergence) was 0. The “Plant response rating, Soybean” value (soybean (Glycine max); Rate 125 g/ha, Preemergence) was 0, the “Plant response rating, Soybean” value (soybean (Glycine max); Rate 250 g/ha, Postemergence) was 0 and the “Plant response rating, Soybean” value (soybean (Glycine max); [16]) was 0. For the same compound, the “Plant response rating, Redroot pigweed” value ([9]; Rate 62 g/ha, Postemergence) was 1, the “Redroot pigweed plant response rating” value ([9]; Rate 62 g/ha, Preemergence) was 0 and the “Redroot pigweed plant response rating” value ([9]; Rate 125 g/ha, Postemergence) was 1. The “Redroot pigweed plant response rating” value ([9]; Rate 125 g/ha, Preemergence) was 0, the “Plant response rating, Redroot pigweed” value ([9]; Rate 250 g/ha, Postemergence) was 7 and the “Plant response rating, Redroot pigweed” value [9, 16] was 0. The “Plant response rating, Rape” value (rape (Brassica napus); Rate 62 g/ha, Postemergence) was 1, the “Rape plant response rating” value (rape (Brassica napus); Rate 62 g/ha, Preemergence) was 0 and the “Rape plant response rating” value (rape (Brassica napus); Rate 125 g/ha, Postemergence) was 3. For the same compound, the “Rape plant response rating” value (rape (Brassica napus); Rate 125 g/ha, Preemergence) was 0, the “Plant response rating, Rape” value (rape (Brassica napus); Rate 250 g/ha, Postemergence) was 4 and the “Plant response rating, Rape” value (rape (Brassica napus); [16]) was 0. The “Plant response rating, Velvetleaf” value ([10]; Rate 62 g/ha, Postemergence) was 0, the “Velvetleaf plant response rating” value ([10]; Rate 62 g/ha, Preemergence) was 0 and the “Velvetleaf plant response rating” value ([10]; Rate 125 g/ha, Postemergence) was 0. For the same compound, the “Plant response rating, Velvetleaf” value ([10]; Rate 125 g/ha, Preemergence) was 0, the “Plant response rating, Velvetleaf” value ([10]; Rate 250 g/ha, Postemergence) was 1 and the “Plant response rating, Velvetleaf” value [10, 16] was 0. The “Plant response rating, Bedstraw” value ([11]; Rate 62 g/ha, Postemergence) was 1, the “Bedstraw plant response rating” value ([11]; Rate 62 g/ha) was 0 and the “Plant response rating, Bedstraw” value ([11]; Rate 125 g/ha, Postemergence) was 1. The “Bedstraw plant response rating” value ([11]; Rate 125 g/ha) was 0, the “Plant response rating, Bedstraw” value [11, 16] was 0 and the “Plant response rating, Morningglory” value ([12]; Rate 62 g/ha, Postemergence) was 1. The “Morningglory plant response rating” value ([12]; Rate 62 g/ha, Preemergence) was 0, the “Morningglory plant response rating” value ([12]; Rate 125 g/ha, Postemergence) was 1 and the “Morningglory plant response rating” value ([12]; Rate 125 g/ha, Preemergence) was 0. The “Plant response rating, Morningglory” value ([12]; Rate 250 g/ha, Postemergence) was 1, the “Plant response rating, Morningglory” value [12, 16] was 0 and the “Plant response rating, Corn” value (corn (Zea mays); Rate 62 g/ha, Postemergence) was 1. For the same compound, the “Corn plant response rating” value (corn (Zea mays); Rate 62 g/ha) was 0, the “Plant response rating, Corn” value (corn (Zea mays); Rate 125 g/ha, Postemergence) was 1 and the “Corn plant response rating” value (corn (Zea mays); Rate 125 g/ha) was 0. The “Plant response rating, Corn” value (corn (Zea mays); Rate 250 g/ha, Postemergence) was 1, the “Plant response rating, Corn” value (corn (Zea mays); [16]) was 0 and the “Plant response rating, Rice” value (rice (Oryza sativa); [17]) was 0. For the same compound, the “Rice plant response rating” value (rice (Oryza sativa); [18]) was 0, the “Plant response rating, Rice” value (rice (Oryza sativa); [19]) was 0 and the “Plant response rating, S. Flatsedge” value [13, 17] was 0. The “S. Flatsedge plant response rating” value [13, 18] was 0, the “Plant response rating, S. Flatsedge” value [13, 19] was 0 and the “Plant response rating, Barnyardgrass” value [14, 17] was 0. The “Plant response rating, Barnyardgrass” value [14, 20] was 0, the “Plant response rating, Barnyardgrass” value [14, 19] was 0 and the “Plant response rating, Ducksalad” value [15, 17] was 0. The “Plant response rating, Ducksalad” value [15, 20] was 0 and the “Plant response rating, Ducksalad” value [15, 19] was 0.
